Values quoted from earlier work, collected in patent US20240268416A1, “ANIMAL FEED ADDITIVE COMPOSITIONS AND METHODS OF USE” (PMI Nutrition, LLC, priority 2023, published 2024).

System: C. elegans
Details: C. elegans assay

urolithins
concentration needed to obtain a positive effect on muscle function: 50 µM | concentration required to trigger the muscle function response: 11.4 µg/mL
